Patent US5169850A, “N-(dialkylamino)methylene)-substituted pyrazolo(1,5-a)-pyrimidine-3-carboxamides and N-(dialkylamino)methylene-substituted-4,5-dihydropyrazolo-(1,5-a)-pyrimi dine-3-carboxamides” (American Cyanamid Company, priority 1991, dated 1992)
Values joined by “and” are separate entries in the source; they are usually repeats but may differ in a detail not shown here. Identical values can stand only once.

How the values were obtained:
[1] = test system: Brain-Specific Receptors of Rats (3H-benzodiazepine binding); experiment: Inhibition of the binding of 3H-benzodiazepine to brain-specific receptors of rats; set-up: species or system rat (male albino, Wistar strain); details: 3H-diazepam or 3H-flunitrazepam, rat cortex P2 fraction, pH 7.4, 30 min in ice; test concentration not given
Description: Still another test utilized for the determination of anxiolytic activity is the measurement of the ability of a test compound to inhibit the binding of tritiated benzodiazepines to brain-specific receptors of mammals. A modification of the method described by R. F. Squires, et al, Nature, 266, No. 21:732 (April, 1977) and H. Mosler, et al, Science, 198:849 (1977) was employed.
Male albino rats (Wistar strain, weighing 150-200 g each) were used. The test compounds were solubilized in N,N-dimethylformamide, acetic acid, ethanol or hydrochloric acid.
Whole cortex of rats was homogenized gently in 20 volumes of ice-cold 0.32 M sucrose, centrifuged twice at 1000 g for 10 minutes and then recentrifuged at 30,000 g for 20 minutes to produce a crude P2 -synaptosomal fraction. The P2 -fraction was either: (1) resuspended in twice the original volume in hypotonic 50 mM Tris.HCl(pH 7.4), or (2) resuspended in one-half of the original volume in hypotonic 10 mM Tris.HCL (pH 7.4) and frozen (-20° C.) until time of use. Frozen P2 preparations were thawed and resuspended in four times the original homogenizing volume at time of assay.
The binding assay consisted of 300 l of the P2 -fraction suspension (0.2-0.4 mg protein), 100 l of test drug and 100 l of 3H-diazepam 91.5 nM, final concentration) or 3H-flunitrazepam (1.0 nM, final concentration )which was added to 1.5 l of 50 mM Tris.HCl (pH 7.4). Non-specific binding controls and total binding controls received […] of diazepam ([…] final concentration) and 100 l of deionized water, respectively, in place of the test compound. Incubation for 30 minutes proceeded in ice and was terminated by filtration, under vacuum, through glass fiber filters. The filters were washed twice with 5 ml of ice-cold 50 mM Tris.HCl (pH 7.4) and placed in scintillation vials. After drying at 50°-60° C. for 30 minutes, 10 ml of diluent was added and the radioactivity determined in a scintillation counter.
Inhibition of binding was calculated by the difference between total binding and binding in the presence of test compound, divided by the total, times 100. Physiological activity can be shown by a test compound that inhibits 3H-benzodiazepine binding by 12 percent or more.

Hypoxic Survival Test = format: in vivo, Royal Hart mice; details: for % Survivors: 30 min before hypoxia, survival after 5 min
Protocol: A useful in vivo test that measures how effectively central nervous system-acting drugs enhance survival in an hypoxic environment, presumably by improving the ratio of energy supply to demand is known as the Hypoxic Survival Test. […] Drugs are tested by intraperitoneally injecting groups of mice 30 minutes prior to placing them in hypoxic mixture and measuring survival. The rationale of this test is that drugs which enhance survival under hypoxic conditions without concomitant, depression or sedative side effects, may do so by enhancing energy metabolism, or by preserving normal brain function under conditions of reduced energy metabolism. Given the dependence of the brain on a constant supply of energy, drugs which have this property may have many far-reaching therapeutic indications, including recovery from stroke and closed head injury, as well as reducing the deleterious effects of the aging central nervous system. […]
A separate group of 20 mice is injected intraperitoneally with saline solution (0.01 cc/g of body weight) and processed as described above.
Still another group of 20 mice is injected intraperitoneally with 0.125 mg/kg of physostigmine and processed as described above.

[2] = Passive-Avoidance Anoxic-Induced-Amnesia Test; format: in vivo, Swiss-Webster mice; details: vs saline control, active if 30 percent
Description: Another in vivo test associated with decreased neural function in mammals is the Passive-Avoidance Anoxic-Induced-Amnesia Test. This test is used to determine the attenuation of anoxic induced amnesia in mice treated with drug, as compared to saline treated control animals with no drug.
A shock-motivated, single trial, step-through passive avoidance procedure is used. Groups of 25 Swiss-Webster, middle aged mice (9 months of age) are placed singly in the front chamber of a 2-chamber box and are allowed to voluntarily cross into the rear chamber. As soon as the mouse enters the rear chamber, a door automatically traps the animal and a mild electric shock (0.4 mA for 4 seconds) is delivered to its feet. Following the foot shock, the mice are initially placed in an anoxic environment (0 percent oxygen) for 12 seconds, which quickly induces unconsciousness. They are then placed in a hypoxic environment (15 percent oxygen) for four minutes which prolongs the oxygen deprived state, maintaining unconsciousness. All testing is performed 24 hours later, and in all cases the mice appear fully recovered from the previous anoxic/hypoxic treatment. All test compounds are administered intraperitoneally at a dose of 5-200 mg/kg, 30 minutes prior to training and testing. Control animals are injected intraperitoneally only with saline at 0.01 cc/g of body weight.
The latency to enter the rear chamber is recorded for both training and testing. Presumably, the more the animal remembers being shocked, the greater it will inhibit going into the rear chamber and the higher will be its latency to re-enter. An improvement of 30 percent over saline control scores is considered active.

[3] = Mean arterial blood pressure in spontaneously hypertensive rats; format: in vivo, spontaneously hypertensive rats of the Okamoto strain; details: gavage, 100 mg/kg or less, two doses 24 h apart, measured at 28 h; average MABP of rats 160±1.5
Protocol: Certain of the novel compounds of the present invention are active hypotensive agents at non-toxic doses when administered to mammals. These compounds were tested for hypotensive activity by the method of P. S. Chan and D. W. Poorvin, Clinical and Experimental Hypertension, 1 (6), […] (1979). Male, 16 week old spontaneously hypertensive rats of the Okamoto strain having an average mean arterial blood pressure of 160±1.5 mm of mercury are used in the test. One to three rats are used per test compound. A rat is dosed by gavage with a test compound, suspended in 2 percent pre-boiled starch at a concentration of50 mg/ml, at a dose of 100 mg/kg of body weight or less, with 0.9 percent sodium chloride loading at a dose of 25 ml/kg of body weight. A second identical dose of the test compound, without sodium chloride loading is given 24 hours later. At 28 hours after the initial dose the mean arterial blood pressure is measured by the method of Chan and Poorvin vide supra. The procedure is repeated in a second and third rat when necessary.

[4] = Protection against clonic seizures caused by pentylenetetrazole; format: in vivo, rats; details: orally or intraperitoneally, pentylenetetrazole 23 mg/kg i.v. at 30 or 60 min
Protocol: The anti-anxiety properties of the novel compounds of the present invention have been established in a test which indicates anxiolytic activity by the measure of protection from convulsions resulting from the administration of pentylenetetrazole. Single or graded dose levels of the test compounds were administered orally or intraperitoneally in a 2 percent starch vehicle containing 0.5 percent v/v polyethylene glycol and one drop of Polysorbate 80, or distilled water and one drop of Polysorbate 80 to groups of at least four rats. At 30 or 60 minutes, the rats were treated intravenously with pentylenetetrazole at a dose of 23 mg/kg of body weight. This dose is estimated to cause clonic seizures in 99 percent of unprotected rats. The test compounds are considered active if they protect 50 percent or more of the rats from clonic seizures.
It has been reported (R. T. Hill and D. H. Tedeschi, "Animal Testing and Screening Procedures in Evaluating Psychotropic Drugs" in "An Introduction to Psychopharmacology", pp 237-288 (Eds. R. R. Rech and K. E. Moore, Raven Press, New York, 1971)) that there is a high degree of correlation between antagonism of pentylenetetrazole seizures in rats and anti-anxiety effects in higher warm-blooded animals.

[5] = Conflict procedure (non-conditioned passive avoidance); format: in vivo, Wistar strain rats; details: 25 mg/kg oral, 60 min before test
Protocol: Another test used to assess anti-anxiety effects is a non-conditioned passive avoidance procedure described by J. R. Vogel, G. Beer and D. E. Clody, "A Simple and Reliable Conflict Procedure for Testing Antianxiety Agents", Psychopharmacologia, 21, 1-7 (1971). A conflict situation was induced in rats by a modification of this method.
Groups of 8 naive, Wistar strain rats, weighing 200-240 g each, were deprived of water for 48 hours. The test compounds were administered in single or graded, oral doses, suspended in 2 percent starch with […] polyethylene glycol in distilled water and one drop of Polysorbate 80. Control animals received the vehicle alone. At 60 minutes each rat was placed in an individual clear plastic chamber. Tap water was available ad libitum from a nipple located in a black box off the main chamber. A 0.7 milliampere AC shocking current was established between the stainless steel grid floor and the tap. After 20 licks of non-shocked drinking, a 2 second shocking current was administered to the rat. This ratio of 20 licks of non-shocked drinking followed by a 2 second shock was continued for a total of 3 minutes. The number of shocks taken by each rat during the 3 minute interval was recorded and compared to a control group. […]

CN(C)C=NC(=O)c1cnn2c(-c3ccccc3)ccnc12 [N-((Dimethylamino)methylene)-7-phenylpyrazolo(1,5-a)-pyrimidine-3-carboxamide]
% Inhibition [1]: 28%

CN(C)C=NC(=O)c1cnn2c(-c3cccnc3)ccnc12 [N-((Dimethylamino)methylene)-7-(3-pyridinyl)-pyrazolo(1,5-a)pyrimidine-3-carboxamide]
% Survivors (Hypoxic Survival Test; 25 mg/kg i.p.): 80% and 58% and 42%
% Improvement ([2]; 25 mg/kg i.p.): 33%
% Improvement ([2]; 50 mg/kg i.p.): 33%

Cc1nn2c(-c3ccncc3)ccnc2c1C(=O)N=CN(C)C [N-((Dimethylamino)methylene)-2-methyl-7-(4-pyridinyl)pyrazolo(1,5-a)pyrimidine-3-carboxamide]
% Survivors (Hypoxic Survival Test; 10 mg/kg i.p.): 55%
MABP/mmHg (no. of rat) [3]: 130 mmHg

Cc1cnc2c(C(=O)N=CN(C)C)cnn2c1 [N-((Dimethylamino)methylene)-6-methyl-pyrazolo(1,5-a)pyrimidine-3-carboxamide]
% Survivors (Hypoxic Survival Test; 10 mg/kg i.p.): 42%
% Survivors (Hypoxic Survival Test; 50 mg/kg i.p.): 40%
% Survivors (Hypoxic Survival Test; 100 mg/kg i.p.): 62%
% Survivors (Hypoxic Survival Test; 200 mg/kg i.p.): 45%

Cc1nn2c(-c3ccccc3)ccnc2c1C(=O)N=CN(C)C [N-((Dimethylamino)methylene)-2-methyl-7-phenylpyrazolo(1,5-a)pyrimidine-3-carboxamide]
% Survivors (Hypoxic Survival Test; 0.1 mg/kg i.p.): 45%
% Survivors (Hypoxic Survival Test; 10 mg/kg i.p.): 100%
% Survivors (Hypoxic Survival Test; 100 mg/kg i.p.): 97%
% Survivors (Hypoxic Survival Test; 200 mg/kg i.p.): 95%
% Inhibition [1]: 18%
% Improvement ([2]; 5 mg/kg i.p.): 49%
% Improvement ([2]; 10 mg/kg i.p.): 37%
% Improvement ([2]; 25 mg/kg i.p.): 66%
% Improvement ([2]; 50 mg/kg i.p.): 66%

Cc1cc(-c2ccccc2)n2nc(C)c(C(=O)N=CN(C)C)c2n1 [N-((Dimethylamino)methylene)-2,5-dimethyl-7-phenylpyrazolo(1,5-a)pyrimidine-3-carboxamide]
% Survivors (Hypoxic Survival Test; 100 mg/kg i.p.): 42%

CNC(=O)Oc1ccc2c(c1)[C@]1(C)CCN(C)[C@@H]1N2C [physostigmine, reference compound]
percent of physostigmine treated mice that survive (Hypoxic Survival Test; 10 percent oxygen, after 5 minutes, control mice 5-20 percent, dose 0.125 mg/kg i.p.): 60-80%

CC(=NC(=O)c1cnn2c(-c3cccnc3)ccnc12)N(C)C [N-((Dimethylamino)ethylidene)-7-(3-pyridinyl)pyrazolo(1,5-a)pyrimidine 3-carboxamide]
% Improvement ([2]; 25 mg/kg i.p.): 53%
% Improvement ([2]; 50 mg/kg i.p.): 46%

CN(C)C=NC(=O)c1cnn2c1NCC=C2c1cccnc1 [N-((Dimethylamino)methylene)4,5-dihydro-7-(3-pyridinyl)pyrazolo(1,5-a)pyrimidine-3-carboxamide]
% Inhibition [1]: 32%
MABP/mmHg (no. of rat) [3]: 113 mmHg
% Improvement ([2]; 50 mg/kg i.p.): 66%
% Improvement ([2]; 100 mg/kg i.p.): 54%

CN(C)C=NC(=O)c1cnn2c1NCC=C2c1cccc(C(F)(F)F)c1 [N-((Dimethylamino)methylene)-4,5-dihydro-7-(3-(trifluoromethyl)phenylpyrazolo(1,5-a)-pyrimidine-3-carboxamide]
% Survivors (Hypoxic Survival Test; 50 mg/kg i.p.): 75%
% Survivors (Hypoxic Survival Test; 100 mg/kg i.p.): 57%
% of Rats Protected ([4]; 12.5 mg/kg): 88%
% of Rats Protected ([4]; 25 mg/kg): 75% and 88%
% Inhibition [1]: 17%
MABP/mmHg (no. of rat) [3]: 131 mmHg
Result (no. of shocks per 3 min.) [5]: 22.9 no. of shocks per 3 min.
% Improvement ([2]; 25 mg/kg i.p.): 49%
% Improvement ([2]; 50 mg/kg i.p.): 57%

CN(C)C=NC(=O)c1cnn2c(-c3cccc(C(F)(F)F)c3)ccnc12 [N-((Dimethylamino)methylene)-7-(3-trifluoromethyl)phenyl)pyrazolo(1,5-a)pyrimidine-3-carboxamide]
% Inhibition [1]: 82%

Cc1cccc(-c2ccnc3c(C(=O)N=CN(C)C)cnn23)c1 [N-((Dimethylamino)methylene) 7-(3-methylphenyl)pyrazolo(1,5-a)pyrimidine-3-carboxamide]
% of Rats Protected ([4]; 50 mg/kg): 50%
% Inhibition [1]: 65%
